What all share (type): in vivo
One test concerns quinine (10 mg/kg). Description: Bitter-duo test (paired comparison, trained panel, nose-clips) with quinine. The method, then: (§1) A trained panel was given different samples with the bitter tasting substances caffeine (500 mg/kg), quinine (10 mg/kg) and naringin (100 mg/kg). Caffeine is the bitter principle of coffee and coffee-type beverages, quinine is used as food additive to flavor tonics or energy drinks and naringin is the bitter principle of grapefruit juice. Each test includes a different amount of bitter-masking substances or mixtures thereof. During the tests, the panellists wear nose-clips to exclude any olfactory impressions. These tests are referred to as bitter-duo tests.
In a first trial, above mentioned bitter samples were mixed with 10 mg/kg eriodictyol-7-O-glucoside at a purity of >95%.
In a second test, the bitter agents were mixed with 50 mg/kg eriocitrin at a purity of >95% and the bitter-masking effect evaluated by the panel.
Another trial was set-up using samples with 10 mg/kg quinine and 50 mg/kg eriodictyol (ED) alone or with an inventive flavoring composition containing eriodictyol-7-O-glucoside (EDMG) and neoeriocitrin (NEC) eriocitrin (EC). […] The same effect was observed when using neoeriocitrin instead of eriocitrin. The wt.-% are based on the dry weight of the flavoring composition.
Other solvents than methanol, mixtures of solvents and different CV ratios can be used in order to achieve the same purification than with methanol as described herein. The column volume ration (CV) is the ratio of column bed volume and volume of solution flowing through column. The product was evaluated by a sensory panel (n=20).

For a further test, the system named is vegan patty. Description: Blind tasting of vegan patties by a panel (sensory profile). As for the experimental part:
A vegan patty has been produced containing the following ingredients: water, leguminose protein isolate, sun flower oil, leguminose protein concentrate, coconut oil, methylcellulose, fiber, salt, starch, lactic acid and sodium diacetate. Water, thickener and starch are mixed with water, pH is adjusted, proteins are added next followed by fibre and oil ingredients. Finally, a taste masking ingredient according to Table 4 is added. The ingredients are thoroughly mixed and the dough is formed to patties. The patties where baked in an oven at 200° C. After cooling the patties, patties were sliced and samples were coded for a blind tasting with a panel.

Test [1] has as its system caffeine (500 mg/kg). In words: Bitter-duo test (paired comparison, trained panel, nose-clips) with caffeine. The method, then:
as §1, with “tests. In a first trial, above mentioned bitter samples were mixed with 10 mg/kg eriodictyol-7-O-glucoside at a purity of >95%. […] In a second test, the bitter agents were mixed with 50 mg/kg eriocitrin at a purity of >95% and the bitter-masking effect evaluated by the panel.” for “tests.”

In the next test the test system is naringin (100 mg/kg). In words: Bitter-duo test (paired comparison, trained panel, nose-clips) with naringin. The method, then:
as §1, with “tests. In a first trial, above mentioned bitter samples were mixed with 10 mg/kg eriodictyol-7-O-glucoside at a purity of >95%. […] In a second test, the bitter agents were mixed with 50 mg/kg eriocitrin at a purity of >95% and the bitter-masking effect evaluated by the panel.” for “tests.”

Test [2] is described as follows: Own taste of eriodictyol-7-O-glucoside at higher concentration. To be noted: concentration above 50 mg/kg.
In test [3] the test system is caffeine (500 mg/kg). In words: Pairwise bitter intensity rating (scale 1-100) in water with 500 mg/kg caffeine. Particulars: for Bitter intensity [0-100] of base: taste modulator 50 mg/kg in water with 500 mg/kg caffeine; for bitter masking of caffeine solution (in words): 50 mg/kg, 500 mg/kg caffeine. As for the experimental part: The said mixture can be compared with further taste modulating compounds to impart taste modulating sensory effects. […] A masking mixture comprising three parts hesperetin, two parts naringenin and two parts of the inventive citrus hydrolysate (55 wt.-% ED, 11.1 wt.-% EDMG, 1.5 wt.-% EC) was tested with 50 mg/kg dosage against naringenin, hesperetin and homoeriodictyol (No. 1-3, Table 5). The compounds and the mixture were all solved in water with added 500 mg/kg caffeine as bitter agent. The panelists were asked to rate the bitter intensity of each sample of one sample pair on a scale of 1-100. […] Said mixtures can be obtained by mixing the inventive citrus hydrolysate with hydrolysates from orange (yielding hesperetin), grapefruit or bergamot (yielding naringenin) or bitter orange and lime among other citrus fruits.

Setting [4] is: Table 1, dosage 10 mg/kg, 20 panellists.
[5] abbreviates: Table 2, dosage 10 mg/kg in table (text: 50 mg/kg), 20 panelists.

Entries after “also recorded” stand apart in the source; their conditions may differ.

Consider `O=C1C[C@@H](c2ccc(O)c(O)c2)Oc2cc(O)cc(O)c21` [ED, Eriodictyol], for which the “Bitter masking activity (%)” value in the test on quinine (10 mg/kg) (Table 3, dosage 50 mg/kg, 10 mg/kg quinine, 18-20 panellists) is on record as −31.0%. Moreover, the “taste improving and bitter masking property (in words)” value with vegan patty was “improved the taste profile”.
Consider `O=C1C[C@@H](c2ccc(O)c(O)c2)Oc2cc(O[C@@H]3O[C@H](CO)[C@@H](O)[C@H](O)[C@H]3O)cc(O)c21` [eriodictyol-7-O-glucoside], for which the “bitter-reducing effect (in words)” value in the test on caffeine (500 mg/kg) [1] (10 mg/kg, purity >95%) is reported as “not significant”; in the test on quinine (10 mg/kg) (10 mg/kg, purity >95%, quinine 10 mg/kg) it was “not significant”; in the test with naringin (100 mg/kg) (10 mg/kg, purity >95%), “not significant”. Further, the “Bitter masking activity (%)” value with caffeine (500 mg/kg) [1] (setting [4]) was −1.94%; in the test on quinine (10 mg/kg) (Table 1, dosage 10 mg/kg, quinine 10 mg/kg, 20 panellists), −7.42%; in the test with naringin (100 mg/kg) (setting [4]), −2.59%. In addition, the own taste notes result in test [2] is recorded as “bitter notes”.
With `COc1cc([C@@H]2CC(=O)c3c(O)cc(O)cc3O2)ccc1O` [Homoeriodictyol], the “taste improving and bitter masking property (in words)” value with vegan patty was “improved the taste profile; also recorded: reduced the bitterness more than eriodictyol”. Further, the “Bitter intensity [0-100] of base” value in the test on caffeine (500 mg/kg) [3] was determined as 37.5.
Consider `COc1ccc([C@@H]2CC(=O)c3c(O)cc(O)cc3O2)cc1O` [Hesperetin], for which, in the test with caffeine (500 mg/kg) [3], the “bitter masking of caffeine solution (in words)” value is on record as “not potent bitter masking compounds” and the “Bitter intensity [0-100] of base” value is listed as 39.
Turning to `C[C@@H]1O[C@@H](OC[C@H]2O[C@@H](Oc3cc(O)c4c(c3)O[C@H](c3ccc(O)c(O)c3)CC4=O)[C@H](O)[C@@H](O)[C@@H]2O)[C@H](O)[C@H](O)[C@H]1O` [eriocitrin, Eriocitrin], the “bitter masking effect (in words)” value is recorded as “not significant” in the test on caffeine (500 mg/kg) [1] (50 mg/kg, purity >95%); “not significant” in the test on quinine (10 mg/kg) (50 mg/kg, purity >95%, quinine 10 mg/kg); “not significant” in the test on naringin (100 mg/kg) (50 mg/kg, purity >95%). For the same compound, the “Bitter masking activity (%)” value is reported as 5.6% with caffeine (500 mg/kg) [1] (setting [5]); −1.6% with quinine (10 mg/kg) (Table 2, dosage 10 mg/kg in table (text: 50 mg/kg), quinine 10 mg/kg, 20 panelists); 0.8% with naringin (100 mg/kg) (setting [5]).
Take `O=C1C[C@@H](c2ccc(O)cc2)Oc2cc(O)cc(O)c21` [Naringenin]: in the test on caffeine (500 mg/kg) [3], the “bitter masking of caffeine solution (in words)” value is given as “not potent bitter masking compounds” and the “Bitter intensity [0-100] of base” value is listed as 36.4.

The values are drawn from patent US20240245085A1, “FLAVORING COMPOSITIONS FOR TASTE IMPROVEMENT” (SYMRISE AG, priority 2021, published 2024).
